One series relates to MRSA USA300. Kind of series: Therapeutic index calculation (IC50 of mammalian cell lines / MIC). Particulars: ratio of average IC50 for A549 and HEK293 to MIC in MRSA USA300. Here is the method:
The biocompatibility of charged pi-conjugated compounds with mammalian cell lines was evaluated by studying the effects of different charged pi-conjugated compound concentrations on the viability of two mammalian cell lines: A549 (epithelial-like lung cells) and HEK293 (epithelial-like kidney cells). […] Dose-response curves were used to determine IC50 values, that is, the concentration of charged pi-conjugated compound needed to inhibit cell viability by 50%. […] The MIC of MRSA USA300 was used to calculate the therapeutic index. MRSA USA300 is a major contributor to community-associated MRSA infections, including skin and soft tissue infections, bacteraemia, endocarditis, bone and joint infections and nosocomial infections. […]
The biocompatibility of charged pi-conjugated compounds with mammalian cell lines was assessed by determining their impact on the mitochondrial activity of human alveolar basal epithelial adenocarcinoma cells (A549) and human embryonic kidney cells (HEK293T) cells, using the Presto Blue assay according to the manufacturer's protocol. […] After 8 h, Presto Blue cell viability reagent (Thermo Fisher Scientific, Waltham, MA, USA) was added to the cells, and after 2 h of incubation, fluorescence was measured using a microplate reader (BioTek Instruments Inc., Winooski, VT, USA). […] The therapeutic index was calculated from the ratio between IC50 and the MIC.

In the next series the test system is Gram-positive strains. Kind of series: MIC / MIC50 by broth microdilution in panel of Gram-positive strains. The conditions noted are these: MIC50 over all Gram-positive strains tested (Table 2). The format is cell-based. Here is the method:
Antibacterial activity was assessed by determining the minimal inhibitory concentration (MIC) and the minimal bactericidal concentrations (MBC) and by monitoring time-dependent bacterial killing of exponentially growing cells. Bacterial cell suspensions (OD600≈0.02 in cation-adjusted Muller-Hinton Broth) were treated with increasing concentrations of the different molecules. The minimal inhibitory concentration (MIC) was defined as the minimal concentration of the molecule resulting in complete bacterial growth arrest. The minimal bactericidal concentration (MBC) was defined as the lowest concentration of the molecule that killed 99.9% of the inoculum. A molecule was determined to be bactericidal if the ratio of the MBC to the MIC was less than 4 to 6. […] In M. smegmatis, the antibacterial activity of charged pi-conjugated compounds was generally lower.
The MIC values for all Gram-positive strains tested (Table 2) were used to calculate the MIC50, i.e., the minimum inhibitory concentration needed to inhibit the growth of 50% of the tested isolates (FIG. 5A). […] When the average MIC50 values were evaluated, the most susceptible bacterial genera were Streptococcus sp., followed by Staphylococcus sp. In contrast, Propionibacterium sp. had the highest average MIC50 (FIG. 5B).
The broth microdilution method was used to determine the MIC of charged pi-conjugated compounds according to the CLSI guidelines. Charged pi-conjugated compound stock solutions (16 mM) were prepared in dimethyl sulfoxide (DMSO). Serial twofold dilutions of the charged pi-conjugated compounds were freshly prepared using the appropriate liquid media (Table 2), and 100 μL of each dilution was added to the appropriate wells of 96-well microtiter plates. The bacterial inoculum was further diluted in liquid media, and 100 μL was added to each well, resulting in a final cell density of ≈5×10^5 CFU mL^−1. […] A molecule was determined to be bactericidal if the ratio of the MBC to the MIC was less than 4 to 6. […]
In general terms: In broth dilution the organism is exposed to a series of concentrations in liquid medium.

The test system of the next series is A375 tumors. Kind of series: Intratumoral injection into A375 tumors in mice. The class given is in vivo. How it is done: Cy7.5-amine was intratumorally injected at the dose of 8 μg (equivalent to 50 μL of 200 μM Cy7.5-amine solution in PBS containing 2.5% DMSO. As control 50 μL of 2.5% DMSO in PBS solution was injected intratumorally. The blue dots indicate the days when the tumors were treated.
Then we applied Cy7.5-amine (FIG. 22C) by intratumoral injection into A375 tumors as described in FIG. 33.

“Also recorded” adds a separate entry of the source.

Take `C[N+]1=C(/C=C/C2=CC(=C/C=C3/N(CCCCCC(=O)NCCCCCCN)c4ccc5ccccc5c4C3(C)C)/CCC2)C(C)(C)c2c1ccc1ccccc21.Cl.[Cl-]` [Cy7.5-amine, Cyanine 7.5-amine]: the therapeutic index with MRSA USA300 is recorded as 1.3. The “antibacterial activity according to MIC50” value with Gram-positive strains is “strongest antibacterial activity”. Further, in the series with A375 tumors (after 7 months of the study), the “mice free of cancer” value is reported as 2 out of 10. In addition, the “loss of A375 tumors” value with A375 tumors (intratumoral 8 μg (50 μL of 200 μM), n=10 mice) turned out to be 20%. In the series on A375 tumors (intratumoral 200 μM, control 2.5% DMSO), the “toxicity to the mice (body weight relative to control)” value is “no sign of toxicity; also recorded: does not cause change of the mice body weight”.

Source of the values: patent US20260216134A1, “CHARGED PI-CONJUGATED MOLECULES FOR THE TREATMENT OF MICROBIAL INFECTIONS” (priority 2023, published 2026).
